ChEMBL document CHEMBL1127893, “Bisindolylmaleimide inhibitors of protein kinase C. Further conformational restriction of a tertiary amine side chain” (Bioorg Med Chem Lett, 1994)

Experiments:
Phosphorylase kinase = experiment: Inhibition of phosphorylase kinase (PhK); type: protein-complex assay
[1] = target: cAMP-dependent protein kinase (PKA) (Homo sapiens, UniProt P22694+P17612+P22612); experiment: Inhibition of cyclic AMP dependent protein kinase A (PKA); type: protein assay
Protein kinase C (PKC) [2] = experiment: Inhibition of protein kinase C (PKC); type: protein assay
[3] = target: T1, Protein kinase C epsilon type (Rattus norvegicus, UniProt P09216); experiment: Inhibition of Protein kinase C epsilon
T1 sequence (P09216 whole entry): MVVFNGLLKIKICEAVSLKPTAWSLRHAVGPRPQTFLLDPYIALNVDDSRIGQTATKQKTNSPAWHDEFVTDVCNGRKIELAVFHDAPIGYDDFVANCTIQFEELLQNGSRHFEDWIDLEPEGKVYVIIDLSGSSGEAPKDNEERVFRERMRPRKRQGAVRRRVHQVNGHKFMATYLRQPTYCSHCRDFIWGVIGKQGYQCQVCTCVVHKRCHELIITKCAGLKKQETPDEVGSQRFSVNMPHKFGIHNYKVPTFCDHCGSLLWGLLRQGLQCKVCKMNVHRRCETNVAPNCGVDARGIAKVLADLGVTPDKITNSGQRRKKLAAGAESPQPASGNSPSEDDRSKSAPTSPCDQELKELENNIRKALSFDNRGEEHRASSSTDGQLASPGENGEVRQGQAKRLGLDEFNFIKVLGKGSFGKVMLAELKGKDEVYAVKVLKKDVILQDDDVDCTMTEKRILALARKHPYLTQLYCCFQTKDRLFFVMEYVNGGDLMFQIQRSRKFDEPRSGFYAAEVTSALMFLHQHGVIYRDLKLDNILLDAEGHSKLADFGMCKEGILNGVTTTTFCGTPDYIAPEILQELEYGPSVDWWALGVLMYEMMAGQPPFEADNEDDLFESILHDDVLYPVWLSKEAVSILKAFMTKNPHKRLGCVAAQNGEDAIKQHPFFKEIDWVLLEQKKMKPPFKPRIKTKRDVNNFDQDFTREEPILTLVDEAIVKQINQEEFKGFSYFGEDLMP

[4] = target: Protein kinase C gamma type (Rattus norvegicus, UniProt P63319); experiment: Inhibition of Protein kinase C gamma (PKC)
[5] = target: Protein kinase C alpha type (Rattus norvegicus, UniProt P05696); experiment: Inhibition of Protein kinase C alpha
[6] = target: T2, Protein kinase C beta type (Rattus norvegicus, UniProt P68403); experiment: Inhibition of Protein kinase C beta
T2 sequence (P68403 whole entry): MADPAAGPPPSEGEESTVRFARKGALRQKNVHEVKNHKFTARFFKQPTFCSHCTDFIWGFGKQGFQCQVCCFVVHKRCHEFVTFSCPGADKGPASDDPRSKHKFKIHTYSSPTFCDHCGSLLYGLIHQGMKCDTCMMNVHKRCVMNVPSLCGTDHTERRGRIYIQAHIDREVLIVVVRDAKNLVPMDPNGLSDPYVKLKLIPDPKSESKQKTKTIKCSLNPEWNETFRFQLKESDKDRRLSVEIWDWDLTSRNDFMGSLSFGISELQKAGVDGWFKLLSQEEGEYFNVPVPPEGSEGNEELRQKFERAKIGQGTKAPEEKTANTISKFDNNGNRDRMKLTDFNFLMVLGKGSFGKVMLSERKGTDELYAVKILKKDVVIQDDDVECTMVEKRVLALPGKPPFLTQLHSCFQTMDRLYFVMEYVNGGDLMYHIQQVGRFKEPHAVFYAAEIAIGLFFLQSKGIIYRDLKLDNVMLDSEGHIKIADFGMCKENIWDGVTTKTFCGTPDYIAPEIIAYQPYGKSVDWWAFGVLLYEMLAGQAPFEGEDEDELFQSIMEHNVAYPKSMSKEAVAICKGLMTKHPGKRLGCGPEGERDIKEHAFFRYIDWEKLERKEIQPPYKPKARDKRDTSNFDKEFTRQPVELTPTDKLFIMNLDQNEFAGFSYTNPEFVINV

[7] = target: T2, Protein kinase C beta type; experiment: Inhibition of Protein kinase C beta 1
Protein kinase C (PKC) [8] = experiment: Inhibition of protein kinase C from rat brain (PKC)

Row | SMILES | IC50 (Phosphorylase kinase) | IC50 [1] | IC50 (Protein kinase C (PKC) [2]) | IC50 [3] | IC50 [4] | IC50 [5] | IC50 [6] | IC50 [7] | IC50 (Protein kinase C (PKC) [8])
1 | CN1C[C@@H]2Cn3c(c(C4=C(c5cn(C)c6ccccc56)C(=O)NC4=O)c4ccccc43)C[C@H]2C1.Cl (stereo in doubt; form 2) | 3800 nM | 5500 nM | 8 nM | – | – | – | – | – | –
2 | CN1C[C@@H]2Cn3c(c(C4=C(c5cn(C)c6ccccc56)C(=O)NC4=O)c4ccccc43)C[C@H]2C1.Cl (stereo in doubt; form 1) | 1690 nM | 2800 nM | 5 nM | 48 nM | 5.4 nM | 2.85 nM | 6.8 nM | 5.3 nM | 6.8 nM
3 | CN(C)C[C@H]1CCn2c(c(C3=C(c4cn(C)c5ccccc45)C(=O)NC3=O)c3ccccc32)C1 [RO-320432] | 15600 nM | 223375 nM | – | 105 nM | 36.5 nM | 8.8 nM | 30.5 nM | 28 nM | 21 nM
